Assay results as given in patent US7297691B2, “Treatment of sleep disorders with cholinesterase inhibitors” (priority 2003, dated 2007).
Where a name gives a salt, the structure may show the parent alone.

Tests used:
[1] = tested on: cholinesterase in hemolyzed whole blood (hemolysate); assay: SIGMA DIAGNOSTICS CHOLINESTERASE (PTC) kit, hemolysate ChE activity in blood samples; assay type: biochemical, human; conditions: for Hemolysate ChE activity: blood samples from 3 patients, no Nivalin = 1.00
Method: (§1) SIGMA DIAGNOSTICS® CHOLINESTERASE (PTC) kit, available from Sigma Diagnostics, can be used for determining the activity and selectivity of cholinesterase inhibitors.
(§2) Reactions involved in the cholinesterase assay are as follows:
(§3) [drawing 4] 5-thio-2-nitrobenzoic acid is assessed by measuring the absorbance at 405 nm. The rate of change in absorbance at 405 nm is directly proportional to cholinesterase activity.
(§4) The activity of erythrocyte cholinesterase may be calculated on the basis of the measurement of butyrylcholinesterase (pseudocholinesterase) in serum and cholinesterase in hemolyzed whole blood (hemolysate), both measured simultaneously by the method described above, and evaluated according to the hematocrit value according to the formula HchE=(EchE×Hct*)+(PchE×(1−Hct*)) Therefore, EchE=(HchE−(PchE×(1−Hct*))/Hct*. • Hematocrit value expressed as decimal equivalent (i.e. 25%=0.25) In the above formulae, EChE is erythrocyte cholinesterase activity, PChE is plasma cholinesterase activity, HChE is hemolysate cholinesterase activity, and Hct is hematocrit value of the sample.
(§5) Another way of assessing the cholinesterase activity is to measure the plasma cholinesterase and the cholinesterase in purified hemolyzed erythrocytes. By doing this, the values are obtained directly.
(§6) Blood samples from 3 patients are tested with the Sigma test.

[2] = target: T1, butyrylcholinesterase (pseudocholinesterase) in serum (Homo sapiens, UniProt P06276); assay: SIGMA DIAGNOSTICS CHOLINESTERASE (PTC) kit, serum ChE activity in blood samples; assay type: biochemical; conditions: for Serum ChE activity: blood samples from 3 patients, no Nivalin = 1.00
T1 construct: butyrylcholinesterase (pseudocholinesterase) in serum; from tissue; host or cells: serum of patients
T1 sequence (P06276 29-602): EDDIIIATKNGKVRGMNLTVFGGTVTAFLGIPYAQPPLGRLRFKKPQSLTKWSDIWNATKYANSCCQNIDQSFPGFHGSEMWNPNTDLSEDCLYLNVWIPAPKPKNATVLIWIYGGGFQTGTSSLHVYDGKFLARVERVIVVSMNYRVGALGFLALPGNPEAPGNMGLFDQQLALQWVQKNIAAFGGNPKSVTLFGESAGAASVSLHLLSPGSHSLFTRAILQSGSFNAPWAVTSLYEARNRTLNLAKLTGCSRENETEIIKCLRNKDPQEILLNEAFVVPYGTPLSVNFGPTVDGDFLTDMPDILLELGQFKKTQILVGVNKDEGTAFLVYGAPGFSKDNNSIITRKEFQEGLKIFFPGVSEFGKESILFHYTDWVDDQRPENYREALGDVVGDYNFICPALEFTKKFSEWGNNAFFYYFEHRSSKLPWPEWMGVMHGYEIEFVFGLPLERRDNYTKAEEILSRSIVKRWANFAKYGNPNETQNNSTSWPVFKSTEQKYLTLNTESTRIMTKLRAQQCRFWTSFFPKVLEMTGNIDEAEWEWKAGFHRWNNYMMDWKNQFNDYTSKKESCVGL
Method: as §1, §2, §3, §4, §5, §6

[3] = in humans; cited from earlier work
[4] = in vivo; cited from earlier work
[5] = cited from earlier work
[6] = side effects in patients treated; assay type: in vivo, human
[7] = cited from earlier work; remark: listed apart in the source
[8] = 1.25 μg/ml Nivalin added in vitro
[9] = 2.50 μg/ml Nivalin added in vitro
[10] = 1.25 and 2.5 μg/ml added in vitro

Compound | Hemolysate ChE activity [1, 8] | Hemolysate ChE activity [1, 9] | change of hemolysate cholinesterase activity with increased concentration [1, 10] | Serum ChE activity [2, 8] | Serum ChE activity [2, 9] | change of serum activity as a response to the addition [2, 10] | passing the blood-brain barrier [3] | elimination half life [4] | lipid solubility [5] | more severe side effects, share of patients [6] | vomiting and dizziness, share of patients ([6]; disappearing after about one week in most cases) | slight nausea, share of cases ([6]; disappearing after about one week of treatment) | complete elimination of metabolites and galantamine [4] | solubility in water ([5]; at room temperature) | toxicity ([7]; in therapeutic concentrations) | severe side effects ([7]; in therapeutically effective dosages) | reported cases of liver toxicity or serious side effects ([7]; use as anticurare agent in anesthesiology since around 1958)
COc1ccc2c3c1O[C@H]1C[C@@H](O)C=C[C@@]31CCN(C)C2 [Nivalin, Galantamine hydrobromide] | 0.96 | 0.86 | significant reduction | 0.98 | 0.97 | do not show any statistically significant change | transverses the blood brain barrier easily | over four hours | lipid soluble | – | – | – | – | – | – | – | –
[4aS-(4aα,6β,8aR*)]-4a,5,9,10 11,12-hexahydro-3-methoxy-11-methyl-6H-benzofuro[3a,3,2-ef][2]benzazepin-6-ol [Galantamine] | – | – | – | – | – | – | – | – | – | 4-6% | 5-10% | about 30% | 72 h | only sparingly soluble | relatively low toxicity | no severe side effects | without any reported case
